We go through two compounds from paper PMC9182202 (Molecules, 2022).

Structures are written as SMILES. Values after ≈ are worked out from the molar mass of the structure shown.

Data set [1] deals with voltage-dependent Ca^2+ channels. The data set is described as follows: Ca2+ concentration-response curves in Ca2+-free medium, rabbit jejunum. As to conditions: Ca^2+-free medium, Sarcorucinine-D 10–30 µg/mL, verapamil 0.05–0.5 µg/mL. As to the method: Another set of confirmatory experiments was also performed to be sure of any potential CCB activity. For this, the regular Tyrode’s physiological salt solution in which the tissues were originally immersed was removed. The baths were filled with a Ca^2+–free Tyrode’s solution with EDTA (0.1 mM). The tissues were left in this solution for half an hour. Later, another replacement was carried out using K^+-rich and Ca^2+-free Tyrode’s solution. The tissues were again left to stabilize for half an hour, and then, the control concentration–response curves of Ca^2+ were constructed and recorded. These control Ca^2+ concentration–response curves were duplicated after pretreatment of the tissues for one hour with different concentrations of Sarcorucinine-D. Any possible CCB effect of Sarcorucinine-D would tend to displace the Ca^2+ concentration–response curves to the right-hand side. The effects of Sarcorucinine-D were compared to those of a standard CCB, verapamil.

In data set [2] the target is T1, Torpedo californica AChE (TcAChE) (Tetronarce californica, UniProt P04058).
T1 construct: purchased Sigma-Aldrich Corporation
T1 sequence (P04058 22-586): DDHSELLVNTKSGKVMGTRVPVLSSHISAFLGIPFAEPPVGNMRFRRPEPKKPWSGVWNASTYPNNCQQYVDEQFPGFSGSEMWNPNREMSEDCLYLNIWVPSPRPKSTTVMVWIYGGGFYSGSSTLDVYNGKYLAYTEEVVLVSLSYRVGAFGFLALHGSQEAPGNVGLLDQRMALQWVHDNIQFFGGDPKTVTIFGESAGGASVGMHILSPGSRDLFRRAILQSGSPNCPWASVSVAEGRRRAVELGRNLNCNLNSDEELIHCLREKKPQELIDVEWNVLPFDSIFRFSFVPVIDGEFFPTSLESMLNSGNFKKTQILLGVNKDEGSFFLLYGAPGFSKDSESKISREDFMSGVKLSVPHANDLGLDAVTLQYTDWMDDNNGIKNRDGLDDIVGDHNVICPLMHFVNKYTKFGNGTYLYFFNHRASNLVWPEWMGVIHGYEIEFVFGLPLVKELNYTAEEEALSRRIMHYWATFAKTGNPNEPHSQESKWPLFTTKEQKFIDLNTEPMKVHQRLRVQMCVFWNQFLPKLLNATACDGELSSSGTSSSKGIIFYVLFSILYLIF
Put plainly: biochemical. Particulars: mean ± SEM of three experiments. As to the method: (§1) The enzyme activity was measured in vitro via a modified spectrophotometric method developed by Ellman et al.. Acetylthiocholine iodide (ATCh) and butyrylthiocholine chloride (BTCh) were used as substrates for the AChE and BChE enzymes, respectively. Ellman reagent, i.e., 5,5-dithiobis (2-nitro) benzoic acid (DTNB), was used to produce the chromogenic indicator for the measurement of the ChE activity using a SpectraMax microplate spectrophotometer (Molecular Devices, CA, USA), as reported previously.
(§2) The IC50 values were calculated using the EZ-Fit program (Perrella Scientific Inc., Amherst, MA, USA). Lineweaver–Burk plots, Dixon plots, and their secondary replots were used to observe the effects of the compound on the values of Km and Vmax. Dixon plots, Lineweaver–Burk plots, and the secondary replots of Lineweaver–Burk plots were used to determine Ki values using initial velocities. […] The graphical analysis of the Dixon plots, Lineweaver–Burk plots, and their secondary plots was used to determine the inhibition type.

The test system of a further data set is MDBK cells. Put plainly: MTT cytotoxicity test. As to conditions: MDBK, MTT, concentration range 0.019–1.56 μg/mL, 72 h. As to the method: (§3) The MTT (3-[4,5-dimethylthazol-2-yl]-2,5-diphenyltetrazolium bromide) test was performed using MDBK adherent cells.
The nature of another data set: MTT cytotoxicity test. Particulars: bovine, MDBK adherent cells. How it is done: as §3
(Tetrazolium dyes change colour on reduction, which living cells bring about.)

A further data set relates to urease. Put plainly: Selectivity screen: urease inhibition. In kind it is biochemical.
The target in a further data set is T2, BChE (horse serum) (Equus caballus, UniProt P81908).
T2 construct: purchased Sigma-Aldrich Corporation; host or cells: horse serum
T2 sequence (P81908 whole entry): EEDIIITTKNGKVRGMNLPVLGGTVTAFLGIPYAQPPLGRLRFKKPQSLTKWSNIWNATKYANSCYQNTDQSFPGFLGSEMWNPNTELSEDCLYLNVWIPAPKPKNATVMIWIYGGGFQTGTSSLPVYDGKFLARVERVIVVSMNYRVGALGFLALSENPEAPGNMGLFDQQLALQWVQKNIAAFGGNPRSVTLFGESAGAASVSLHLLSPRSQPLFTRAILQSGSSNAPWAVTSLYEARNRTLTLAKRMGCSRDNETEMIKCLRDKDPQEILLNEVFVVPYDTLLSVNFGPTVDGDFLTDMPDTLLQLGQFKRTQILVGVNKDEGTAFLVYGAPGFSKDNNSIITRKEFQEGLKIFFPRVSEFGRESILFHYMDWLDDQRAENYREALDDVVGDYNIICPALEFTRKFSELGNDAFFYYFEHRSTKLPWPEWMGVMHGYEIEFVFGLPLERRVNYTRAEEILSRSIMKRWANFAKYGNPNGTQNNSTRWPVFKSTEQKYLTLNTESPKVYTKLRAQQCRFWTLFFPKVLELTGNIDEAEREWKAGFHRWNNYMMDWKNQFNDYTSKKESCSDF
Put plainly: biochemical. It counts as biochemical. As to the method:
as §1, §2

In another data set the test system is α-glucosidase. As to the method:
(§4) To test the selectivity of the compound, Sarcorucinine-D was also tested for the inhibition of several other enzymes such as phosphodiesterase, α-glucosidase, β-glucuronidase, and urease enzymes. The assays of these enzymes are reported elsewhere.

The subject of a further data set is phosphodiesterase. How it is done:
as §4

For another data set, the system named is β-glucuronidase. The data set is described as follows: Selectivity screen: β-glucuronidase inhibition. In kind it is biochemical.

Consider `COc1ccc(CCN(C)CCCC(C#N)(c2ccc(OC)c(OC)c2)C(C)C)cc1OC` (stereo not shown) [verapamil, reference compound], for which the “Effect on CaCl2 concentration–response curves” value in data set [1] was “displaced the CaCl2 curves to the right”.
For orientation: Ki means a measure of affinity in units of concentration, obtained from inhibition or displacement. Broadly, the IC50 is the concentration that gives 50% inhibition. Turning to `CC(C1CCC2C3CCC4CC(O)CCC4(C)C3CCC21C)N(C)C` (stereo not shown) [Sarcorucinine-D], the inhibition constant Ki in [2] (from Dixon plot, Lineweaver–Burk plot and secondary replots, read-out: Acetylcholinesterase Ki) was 103 ± 6.67 µM; on BChE (horse serum) it was 4.66 ± 0.3 µM. Besides, the IC50 in data set [2] (read-out: Acetylcholinesterase IC50) came to 42.9 ± 3.13 µM; at BChE (horse serum), 8.87 ± 0.56 µM. Besides, in the data set with MDBK cells, the “Cytotoxic effect at low concentrations” value is reported as “No cytotoxic effect”. In “MTT cytotoxicity test”, the IC50 at 72 h was 2.24 µg/mL (≈ 6.44 µM). Besides, in the data set with urease, the “Selectivity screen result, urease” value is recorded as “selective ChE inhibitor”. Further, the “Selectivity toward BChE over AChE” value at BChE (horse serum) (from the data of Table 1) is “approximately 22 times”. Further, the “Selectivity screen result, α-glucosidase” value with α-glucosidase is on record as “selective ChE inhibitor”. The “Selectivity screen result, phosphodiesterase” value in the data set on phosphodiesterase is on record as “selective ChE inhibitor”. Besides, the “Effect on CaCl2 concentration–response curves” value in data set [1] is “displaced the CaCl2 curves to the right”. In addition, in the data set with β-glucuronidase, the “Selectivity screen result, β-glucuronidase” value is recorded as “selective ChE inhibitor”.
